The test system of data set [1] is HIV antigen. In words: Expression of HIV antigen in infected MT-4 cells by immunofluorescence. The format is cell-based. As to the method:
Expression of HIV antigen was examined by immunofluorescence. When MT-4 cells were infected with HIV, viral antigen positive cells increased with incubation time and all the cells became positive on day 6 after infection.

The test system of data set [2] is uninfected CEM cells. The settings on record: human, 7200 min.
Protocol: The cells and the virus were grown in LAV/CEM medium. The medium consists of RPMI 1640, supplemented with 1% L-glutamine, 100 U/ml of Penicillin, 100 μg/ml Streptomycin, 2 μg/ml Polybrene and 10% heat-inactivated fetal bovine serum (HyClone Labs).
The toxicities of the drugs were tested against uninfected CEM cells. The CEM cells were plated as described above, and culture for five days in the presence or absence of drugs. On day five 1 μCi/well of ^3 H-thymidine was added, and cells were harvested 3 hours later. The results are expressed as toxic dose 50 (TD50) and represent the amount of drug necessary to reduce the cell proliferation by 50% as measured through thymidine incorporation.
In data set [3] the test system is herpes simplex virus type 1 (HSV-1). As to the kind of experiment: microbe, parasite or virus in culture. The format is cell-based. The settings on record: for ID50 HSV-Vero cell: Table 8, 72 hours incubation, 50% inhibition of cytopathic effect. For orientation: Damage to the host cells serves as the signal in cytopathic effect assays.
The test system of data set [4] is Madin Darby canine kidney (MDCK) cell. In words: Drug-induced cytotoxicity against MDCK cells without viral infection (dye-uptake assay). The settings on record: Table 8; 50% cytotoxicity against MDCK cell without viral infection; 4320 min.
Data set [5] relates to human immunodeficiency virus (HIV) LAV/BRU. The settings on record: CEM-F cells; drug amount reducing viral replication by 50%.
Protocol: AZT was included as a reference compound. The methodology used in this assay is described below:
The cells and the virus were grown in LAV/CEM medium. The medium consists of RPMI 1640, supplemented with 1% L-glutamine, 100 U/ml of Penicillin, 100 μg/ml Streptomycin, 2 μg/ml Polybrene and 10% heat-inactivated fetal bovine serum (HyClone Labs). […] The virus was adapted to CEM cells, and infectious virus stocks were stored as cell-free supernatant fluids in 1 ml aliquots in liquid nitrogen. The titer of the stock was determined by an end point titration method using CEM cells in 96-well microtiter plates. The titration was done with ten replicates for each point, and the 50% tissue culture infective dose (TCID50) was calculated using the method of Reed and Muench (Amer. J. Hygiene, 27/3 (1938) 493-497).
The CEM cells (1.5×10^5 cells/ml) were placed in 96-well plates and incubated with virus for 45 minutes. After 45 minutes each compound was added in quadruplicate. At the end of the day, six supernatants were tested for presence of viral core protein p24gag in an antigen capture ELISA (Genetic Systems Company). The OD readings (absorbance at 450/630 nm) fall into three categories: Experimentals=values from wells containing cells, viral inoculum and drug; Controls=values from wells with cells and virus (100%); and Background=values from wells with viral inoculum alone. […]
Data set [6] concerns reverse transcriptase (RTase) derived from avian myeloblastosis virus (AMV). The format is biochemical.
For data set [7], the system named is influenza virus A. In words: microbe, parasite or virus in culture. The settings on record: 72 hours incubation, 50% inhibition of cytopathic effect; for ID50 Influenza virus-MDCK cell: Table 8; for IC50: unidentified influenza virus, MDCK, 72 h. The format is cell-based.
The subject of data set [8] is Vero cell. The settings on record: Table 8; 50% cytotoxicity against Vero cell without viral infection; 4320 min.
A short description of data set [9]: Solubility in water and organic solvents. The format is physicochemical.
Data set [10] deals with human immunodeficiency virus (LAVBRU strain). In words: Anti-HIV XTT assay in CEM-SS cells. The format is cell-based. The settings on record: Human immunodeficiency virus 1, 144 h, six days post infection, read-out: ED50 (XTT assay). Background: Tetrazolium assays rely on reduction of a dye to a coloured formazan, in cell work by metabolically active cells.
Description: The antiviral effect is expressed as the concentration of compound which increases the number of viable cells in infected cultures to 50% that of the untreated, uninfected control cultures (ED50) The cellular toxicity is expressed as the concentration of compound which reduces the number of viable cells to 50% that of the untreated control (TD50).
A short description of data set [11]: Cellular toxicity in CEM-SS cells (XTT assay). The format is cell-based. The settings on record: human. An excerpt:
CEM-SS cells were obtained from Owen Weislow at the National Cancer Institute.

Data set [12] can be described thus: in vitro. The settings on record: monkey, vero cells.
Data set [13] is described as follows: Drug-induced cytotoxicity against MDCK cells without viral infection (dye-uptake assay). The settings on record: dog, mdck cells, TD50 Influenza virus-MDCK cell.

Values after ≈ are worked out from the molar mass of the structure shown. Like-named read-outs stand apart in the source and are kept apart here.

Regarding `C/C1=C\C=C\C2(C)C=C(CO[C@H]3O[C@H](CO)[C@H](O)[C@H](O)[C@H]3O)C(C)CC23OC(O)C(C3=O)C(O)/C=C/C2(C)C=C(C=O)C(C)CC23OC(O)C(C3=O)C(O)/C(C)=C/C=C/C2C=C(CO[C@H]3O[C@H](CO)[C@H](O)[C@H](O)[C@H]3O)C(C)CC23OC(O)C(C3=O)C(O)/C=C/C2(C)C=C(C=O)C(C)CC23OC(O)C(C3=O)C1O` (stereo partly shown), the “HIV antigen positive cells (suppression)” value in data set [1] (HIV-infected MT-4 cells cultured in the presence of compound) was “significantly suppressed”. For the same compound, the “HIV antigen positive cells” value in [1] (HIV-infected MT-4 cells, concentration higher than 50 μg/ml, FIG. 10) is reported as “less than 1%”. Also, the “TD50 (thymidine incorporation)” value in data set [2] was over 100 µg. Further, the “ID50 HSV-Vero cell” value in [3] is 11 µg/mL (≈ 7.3 µM). In addition, the “TD50 Influenza virus-MDCK cell” value in data set [4] is 250 µg/mL. Further, in [5], the “ED50 (p24gag antigen capture assay)” value is 3.2 µg. In addition, in [6] (3 μg/ml), the “AMV reverse transcriptase % inhibition” value is given as 96.9% and the “AMV reverse transcriptase activity, count” value is listed as 1,584 ± 1,292 cpm. In data set [6] (6 μg/ml), the “AMV reverse transcriptase % inhibition” value turned out to be 98.1% and the “AMV reverse transcriptase activity, count” value was 976 ± 145 cpm. Besides, in [6] (12.5 μg/ml), the “AMV reverse transcriptase % inhibition” value is on record as 98.2% and the “AMV reverse transcriptase activity, count” value was found to be 920 ± 271 cpm. In addition, in data set [6] (25 μg/ml), the “AMV reverse transcriptase % inhibition” value came out at 98.8% and the “AMV reverse transcriptase activity, count” value is reported as 621 ± 402 cpm. Also, in [6] (50 μg/ml), the “AMV reverse transcriptase % inhibition” value is reported as 99.5% and the “AMV reverse transcriptase activity, count” value is listed as 235 ± 73 cpm. In data set [6] (100 μg/ml), the “AMV reverse transcriptase % inhibition” value is given as 99.7% and the “AMV reverse transcriptase activity, count” value is 159 ± 14 cpm. Moreover, the “Inhibition of 1 unit of AMV RTase activity” value in data set [6] (concentrations higher than 3 μg/ml) is “more than 95%”. In addition, the “ID50 Influenza virus-MDCK cell” value in [7] was found to be 150 µg/mL (≈ 99.5 µM). The “TD50 HSV-Vero cell” value in data set [8] was over 400 µg/mL. Besides, in data set [9], the Solubility in acetone result was “slightly soluble”; the “Solubility in dimethylformamide and dimethyl sulfoxide” value is on record as “soluble”; the Solubility in methanol entry is “slightly soluble”; the “Solubility in other organic solvents” value was “practically insoluble”. Also, the Solubility in water result in [9] is reported as “soluble”.
For the compound `C/C1=C\C=C\C2C=C(CO[C@H]3O[C@H](CO)[C@H](O)[C@H](O)[C@H]3O)C(C)CC23OC(O)C(C3=O)C(O)/C=C/C2(C)C=C(CO)C(C)CC23OC(O)C(C3=O)C(O)/C(C)=C/C=C/C2(C)C=C(CO[C@H]3O[C@H](CO)[C@H](O)[C@H](O)[C@H]3O)C(C)CC23OC(O)C(C3=O)C(O)/C=C/C2(C)C=C(C=O)C(C)CC23OC(O)C(C3=O)C1O` (stereo partly shown), the “TD50 (thymidine incorporation)” value in [2] was over 100 µg. Further, the “ID50 HSV-Vero cell” value in data set [3] is 11 µg/mL (≈ 7.29 µM). Moreover, the “TD50 Influenza virus-MDCK cell” value in data set [4] came to 150 µg/mL. Also, the “ED50 (p24gag antigen capture assay)” value in data set [5] was found to be 2.5 µg. Also, the “ID50 Influenza virus-MDCK cell” value in data set [7] is over 150 µg/mL. For the same compound, the “TD50 HSV-Vero cell” value in data set [8] was over 200 µg/mL. Also, in data set [9], the Solubility in acetone entry is “slightly soluble”; the “Solubility in dimethylformamide and dimethyl sulfoxide” value was “soluble”; the Solubility in methanol entry is “slightly soluble”; the “Solubility in other organic solvents” value was “practically insoluble”. For the same compound, the Solubility in water result in [9] is recorded as “soluble”.
For the compound `Cc1cn([C@H]2C[C@H](N=[N+]=[N-])[C@@H](CO)O2)c(=O)[nH]c1=O` [AZT], the EC50 in [10] is 0.005 µg/mL (≈ 0.0187 µM). For the same compound, in data set [2], the “TD50 (thymidine incorporation)” value turned out to be 4.2 µg. Also, the cytotoxic concentration (CC50) at 144 h in data set [11] is over 500 µg/mL.
In the case of `Nc1nc2c(ncn2COCCO)c(=O)[nH]1` [Acyclovir], the IC50 in [3] (Human alphaherpesvirus 1, Vero, 72 h, read-out: ID50 HSV-Vero cell) amounted to 0.09 µg/mL (≈ 0.4 µM). The same compound displayed a CC50 at 72 h in data set [12] of over 100 µg/mL.
For `NC(=O)c1ncn([C@@H]2O[C@H](CO)[C@@H](O)[C@H]2O)n1` [Ribavirin, reference compound], the half-maximal cytotoxic concentration (CC50) at 72 h was over 200 µg/mL in data set [13] (Table 8, 50% cytotoxicity against MDCK cell without viral infection) and over 100 µg/mL in [13] (Table 10, 50% cytotoxicity against MDCK cells without viral infection). Further, the IC50 amounted to 15 µg/mL (≈ 61.4 µM) in [7] (read-out: ID50 Influenza virus-MDCK cell, Table 8) and 9.5 µg/mL (≈ 38.9 µM) in [7] (read-out: ID50 Influenza virus-MDCK cell, Table 10).

The CC50 is the concentration giving 50% cytotoxicity. A high value points to better tolerance by the cells.

For the origin of these results see patent US5098708A.
